Measured values: patent US20250352548A1, “BTK Reducing Molecules for Treatment of Cancers and Immune System Disorders” (Accutar Biotechnology, Inc., priority 2022, published 2025)

Legend:
[1] = test system: engineered REC-1 PLCγ2^L845F cells; test: Cancer cell growth in vitro, CellTiter-Glo, 6 days; assay type: cell-based; conditions: 6 days after administration, compared to Ibrutinib (FIG. 1C)
Protocol: (§1) Parental REC1 cells were obtained from the American Type Culture Collection (ATCC). PLCγ2 gene in REC-1 cell line was edited using the CRISPR-Cas9 technology to create a S to Y point mutation at residue 707 of PLCγ2 protein, or L to F point mutation at residue 845 of PLCγ2 protein. For gene editing, first, gRNA complex of PLCγ2 S707Y or PLCγ2 L845F was prepared with Alt-R CRISPR-Cas9 tracrRNA and crRNA PLCγ2 S707Y (5′-[…]-3′) or PLCγ2 L845F (5′-[…]-3′) (IDT-Integrated DNA Technologies), and then ribonucleoprotein (RNP) complex of PLCγ2 S707Y or PLCγ2 L845F was prepared with respective gRNA complex and Alt-R S.p. Cas9 Nuclease V3 (IDT-Integrated DNA Technologies). […]
(§2) Parental REC1 cells (ATCC), engineered REC1 PLCγ2^S707Y cells, or engineered REC-1 PLCγ2^L845F cells, were plated in 96-well plates at 8,000 cells/well in 90 μl of RPMI1640 growth medium containing 10% heat-inactivated FBS and 1× Penicillin Streptomycin, and then incubated at 37° C. overnight. […] The plates were then incubated at room temperature for 10 minutes and luminescence was recorded by EnSpire plate reader (PerkinElmer).

[2] = test system: engineered REC1 PLCγ2^S707Y cells; test: Cancer cell growth in vitro, CellTiter-Glo, 6 days; assay type: cell-based; conditions: 6 days after administration, compared to Ibrutinib (FIG. 1B)
Protocol: as §1, §2

[3] = test system: engineered REC1 PLCγ2^S707Y knock-in tumors; test: Mouse xenograft tumor model, REC1 PLCγ2^S707Y knock-in; assay type: in vivo; conditions: for TGI: 14 days after administration, S707Y tumors
Protocol: (§3) Parental REC1 cells (ATCC), engineered REC1 PLCγ2^S707Y cells, and engineered REC-1 PLCγ2^L845F cells, as described in Example 1, were maintained in vitro as monolayer culture in RPMI1640 medium supplemented with 10% fetal bovine serum and 1× Penicillin Streptomycin at 37° C. in an atmosphere of 5% CO2 in air. The tumor cells were routinely subcultured twice weekly. The cells growing in an exponential growth phase were harvested and counted for tumor inoculation. Each mouse was inoculated subcutaneously at the armpit of the right flank with 5×10^6 tumor cells in 0.1 mL of PBS mixed with 0.1 mL matrigel for tumor development. Treatment of the BTK degrader of Formula I-D (1.5 mg/kg, 3 mg/kg, 6 mg/kg, or 15 mg/kg, PO), Ibrutinib (25 mg/kg, PO), or vehicle (PO) started when the average tumor size reached approximately 100 mm^3. Mice were assigned into groups using an Excel-based randomization software performing stratified randomization based upon their tumor volumes. Tumor sizes were measured 3 times weekly in two dimensions using a caliper, and the volume was expressed in mm^3 using the formula: V=0.5 a×b^2 where a and b are the long and short diameters of the tumor, respectively. Tumor growth inhibition (TGI) was calculated for each group using the formula: TGI (%)=[1−(Ti−T0)/(Vi−V0)]×100; Ti is the average tumor volume of a treatment group on a given day, T0 is the average tumor volume of the treatment group on the first day of treatment, Vi is the average tumor volume of the vehicle control group on the same day with Ti, and V0 is the average tumor volume of the vehicle group on the first day of treatment.

[4] = test system: engineered REC1 PLCγ2^L845F knock-in tumors; test: Mouse xenograft tumor model, REC1 PLCγ2^L845F knock-in; assay type: in vivo; conditions: for TGI: 14 days after administration, L845F tumors
Protocol: as §3

Row | SMILES | cell growth inhibition [1] | cell growth inhibition [2] | TGI ([3]; 3 mg/kg PO) [%] | TGI ([3]; 6 mg/kg PO) [%] | TGI ([3]; 15 mg/kg PO) [%] | tumor growth inhibition vs Ibrutinib ([3]; REC1 PLCγ2^S707Y knock-in mice, PO, 14 days after administration (FIG. 2B)) | TGI ([4]; 3 mg/kg PO) [%] | TGI ([4]; 6 mg/kg PO) [%] | TGI ([4]; 15 mg/kg PO) [%] | tumor growth inhibition vs Ibrutinib ([4]; REC-1 PLCγ2^L845F knock-in mice, PO, 14 days after administration (FIG. 2C)) | TGI ([3]; Ibrutinib 25 mg/kg PO) [%] | TGI ([4]; Ibrutinib 25 mg/kg PO) [%]
1 | COc1ccc(F)cc1C(=O)NCc1ccc(-c2nn(-c3ccc(N4CCC(CN5CCN(c6ccc7c(c6)CN(C6CCC(=O)NC6=O)C7=O)CC5)CC4)c(F)c3)c3ncnc(N)c23)cc1 (stereo not drawn) [Formula I-D] | significantly inhibited cell growth | significantly inhibited cell growth | 61 | 74 | 86 | significantly inhibited tumor growth | 63 | 81 | 88 | significantly inhibited tumor growth |  | 
2 | C=CC(=O)N1CCC[C@@H](n2nc(-c3ccc(Oc4ccccc4)cc3)c3c(N)ncnc32)C1 [Ibrutinib, reference compound] |  |  |  |  |  |  |  |  |  |  | 5 | 12
